Measurements: US12729181B2, “Compounds, compositions, and methods for modulating calcium ion homeostasis” (The Regents of the University of California, priority 2020, dated 2026)

Test system: tre^tc318 mutant embryos
Assay: Compound rescue screen: restoration of persistent heartbeat in tremblor embryos
Type: in vivo, Zebrafish
Details: for Rescue at 10 uM (%): 10 uM from 30 hpf; for Rescue at 10 uM (%) / Rescue at 15 uM (%) / Rescue at 20 uM (%): cardiac function by visual inspection at 2 dpf, 10 embryos per well; for Rescue at 15 uM (%): 15 uM from 30 hpf; for Rescue at 20 uM (%): 20 uM from 30 hpf; for responders at 10 µM / responders at 15 µM / responders at 20 µM: Danio rerio, 48 h; for responders at 10 µM: read-out: Rescue at 10 uM (%); for responders at 15 µM: read-out: Rescue at 15 uM (%); for responders at 20 µM: read-out: Rescue at 20 uM (%)
Method: Zebrafish of the mutant line tremblor (tre^tc318) were maintained and bred as described previously in the literature. C. f. Langenbacher A D, et al., PNAS, 2005, 102(49), 17699-17704.
Exemplary compounds were screened for their ability to partially or completely restore persistent heartbeat in tre^tc318 embryos. 10 tre^tc318 mutant embryos were placed in each well of a 24-well plate and raised in the presence of individual compounds at various concentrations (5, 10, 15 and 20 μM) from 30 hpf. Cardiac function was analyzed by visual inspection at 2 dpf. The hearts of tre^tc318 embryos manifest a chaotic movement resembling cardiac fibrillation with sporadic contractions. Compounds that elicited persistent coordinated cardiac contractions were validated by rescreening at least once on another 10 tre^tc318 mutant embryos.

CCOC(=O)C1=CCN(S(=O)(=O)c2ccccc2C(=O)OC)C1c1ccc(Cl)cc1 (centres unmarked) [FS073]
Rescue at 10 uM (%): 40%

CCOC(=O)C1=CCN(S(=O)(=O)c2ccccc2)C1c1ccc(Cl)cc1 (centres unmarked) [FS072]
Rescue at 10 uM (%): 60% | Rescue at 15 uM (%): 70% | Rescue at 20 uM (%): 40%

CCOC(=O)C1=CCN(S(=O)(=O)c2ccccc2F)C1c1cccc(C)c1 (centres unmarked) [FS038]
responders at 10 µM: 25%

CCOC(=O)C1=CCN(S(=O)(=O)c2ccccc2Cl)C1c1cccc(Br)c1 (centres unmarked) [FS026]
responders at 10 µM: 0%

CCOC(=O)C1=CCN(S(=O)(=O)c2ccc(C)cc2)C1c1ccccc1F (centres unmarked) [FS062]
Rescue at 10 uM (%): 50% | Rescue at 15 uM (%): 90% | Rescue at 20 uM (%): 60%

CCOC(=O)C1=CCN(S(=O)(=O)c2ccccc2F)C1c1cccc(Br)c1 (centres unmarked) [FS036]
responders at 10 µM: 0%

CCOC(=O)C1=CCN(S(C)(=O)=O)C1c1ccc(Cl)cc1 (centres unmarked) [FS139]
Rescue at 15 uM (%): 0%

CCOC(=O)C1=CCN(S(=O)(=O)c2ccccc2Cl)C1c1ccc(Br)cc1 (centres unmarked) [FS042]
responders at 10 µM: 0%

CCOC(=O)C1=CCN(S(=O)(=O)c2ccc(Br)cc2)C1c1cccc(F)c1 (centres unmarked) [FS095]
responders at 10 µM: 40%

CCOC(=O)C1=CCN(S(=O)(=O)c2ccc(C)cc2)C1c1cccc2ccccc12 (centres unmarked) [FS068]
Rescue at 10 uM (%): 0% | Rescue at 15 uM (%): 0% | Rescue at 20 uM (%): 0%

CCOC(=O)C1=CCN(S(=O)(=O)c2ccc([N+](=O)[O-])cc2)C1c1ccccc1 (centres unmarked) [FS142]
Rescue at 15 uM (%): 56%

CCOC(=O)C1=CCN(S(=O)(=O)c2ccccc2Br)C1c1cccc(F)c1 (centres unmarked) [FS032]
responders at 10 µM: 0%

CCOC(=O)C1=CCN(S(=O)(=O)c2ccc(Cl)cc2)C1c1ccc(Cl)cc1 (centres unmarked) [FS085]
Rescue at 10 uM (%): 89% | Rescue at 15 uM (%): 80% | Rescue at 20 uM (%): 80%

CCOC(=O)C1=CCN(S(=O)(=O)c2ccccc2C)C1c1ccc(Cl)c(Cl)c1 (centres unmarked) [FS019]
responders at 10 µM: 30% | responders at 15 µM: 40% | responders at 20 µM: 30%

CCOC(=O)C1=CCN(S(=O)(=O)c2ccccc2Br)C1c1cccc(Cl)c1 (centres unmarked) [FS030]
responders at 10 µM: 0%

CCOC(=O)C1=CCN(S(=O)(=O)c2ccc(Br)cc2)C1c1cccc(C)c1 (centres unmarked) [FS096]
responders at 10 µM: 22%

CCOC(=O)C1=CCN(S(=O)(=O)c2ccc(F)cc2)C1c1ccc(Cl)cc1 (centres unmarked) [FS123]
responders at 15 µM: 70%

CCOC(=O)C1=CCN(S(=O)(=O)c2ccccc2C)C1c1ccc(C)cc1 (centres unmarked) [FS018]
responders at 10 µM: 0%

CCOC(=O)C1=CCN(S(=O)(=O)c2cccc(Cl)c2)C1c1ccccc1 (centres unmarked) [FS132]
responders at 15 µM: 88%

CCOC(=O)C1=CCN(S(=O)(=O)c2ccc(Cl)cc2)C1c1cccc(Cl)c1 (centres unmarked) [FS088]
responders at 10 µM: 0%

CCOC(=O)C1=CCN(S(=O)(=O)c2ccc(C)cc2)C1c1ccc(C(C)C)cc1 (centres unmarked) [FS070]
Rescue at 10 uM (%): 0%

CCOC(=O)C1=CCN(S(=O)(=O)c2ccc(Br)cc2)C1c1ccc(F)cc1 (centres unmarked) [FS101]
responders at 10 µM: 20%

CCOC(=O)C1=CCN(S(=O)(=O)c2cccc(F)c2)C1c1ccc(Br)cc1 (centres unmarked) [FS134]
responders at 15 µM: 60%

CCOC(=O)C1=CCN(S(=O)(=O)c2cccc(Cl)c2)C1c1cccc(Br)c1 (centres unmarked) [FS120]
responders at 15 µM: 56%

CCOC(=O)C1=CCN(S(=O)(=O)c2cccc(Br)c2)C1c1ccc(F)cc1 (centres unmarked) [FS138]
responders at 15 µM: 50%

CCOC(=O)C1=CCN(S(=O)(=O)c2ccccc2F)C1c1ccc(Cl)c(Cl)c1 (centres unmarked) [FS034]
responders at 10 µM: 65% | responders at 15 µM: 30% | responders at 20 µM: 20%

CCOC(=O)C1=CCN(S(=O)(=O)c2ccc(F)cc2)C1c1cccc(Cl)c1 (centres unmarked) [FS114]
responders at 15 µM: 22%

CCOC(=O)C1=CCN(S(=O)(=O)c2ccccc2[N+](=O)[O-])C1c1ccc(C)cc1 (centres unmarked) [FS075]
Rescue at 10 uM (%): 0%

CCOC(=O)C1=CCN(S(=O)(=O)c2ccccc2Br)C1c1ccc(F)cc1 (centres unmarked) [FS047]
responders at 10 µM: 20%

CCOC(=O)C1=CCN(S(=O)(=O)c2ccc(C)cc2)C1c1cccc(Cl)c1 (centres unmarked) [FS064]
Rescue at 10 uM (%): 20%

CCOC(=O)C1=CCN(S(=O)(=O)c2ccccc2F)C1c1cccc(Cl)c1 (centres unmarked) [FS035]
responders at 10 µM: 0%

CCOC(=O)C1=CCN(S(=O)(=O)c2cccc(F)c2)C1c1ccc(F)cc1 (centres unmarked) [FS135]
responders at 15 µM: 50%

CCOC(=O)C1=CCN(S(=O)(=O)c2ccccc2Cl)C1c1ccc(F)cc1 (centres unmarked) [FS043]
responders at 10 µM: 33%

CCOC(=O)C1=CCN(S(=O)(=O)c2ccc(Br)cc2)C1c1ccccc1 (centres unmarked) [FS104]
Rescue at 10 uM (%): 60% | Rescue at 15 uM (%): 50% | Rescue at 20 uM (%): 60%

CCOC(=O)C1=CCN(S(=O)(=O)c2ccc(Br)cc2)C1c1ccc(Cl)cc1 (centres unmarked) [FS099]
responders at 10 µM: 0% | responders at 15 µM: 33%
